Test results: ChEMBL document CHEMBL5150029, “Conformationally Defined Rexinoids for the Prevention of Inflammation and Nonmelanoma Skin Cancers” (J Med Chem, 2022)
Activity calls are given as the source filed them. No cut-off for these calls is given here.

Assays:
[1] = Induction of triglyceride level in Sprague-Dawley rat at 150 mg/kg in diet for 7 days relative to control; type: functional; conditions: time 7 day
[2] = system: Mus musculus; test: Prevention of UVB-induced carcinogenesis in Ptch+/- / SHK-1 mouse assessed as reduction in tumor number at 20 mg/kg measured after twice a week of UVB irradiation for 34 weeks; type: functional
[3] = Induction of triglyceride level in Sprague-Dawley rat at 60 mg/kg in diet for 7 days relative to control; type: functional; conditions: time 7 day
[4] = system: Epithelial cell; test: Upregulation of LRAT gene expression in human organotypic epithelial cells at 0.2 uM incubated for 9 days with replacement of fresh compounds every other day by qPCR analysis; type: functional, cell-based; conditions: time 9.0 day
[5] = system: Epithelial cell; test: Upregulation of RARB gene expression in human organotypic epithelial cells at 0.2 uM incubated for 9 days with replacement of fresh compounds every other day by qPCR analysis; type: functional, cell-based; conditions: time 9.0 day
[6] = system: Epithelial cell; test: Upregulation of STRA6 gene expression in human organotypic epithelial cells at 0.2 uM incubated for 9 days with replacement of fresh compounds every other day by qPCR analysis; type: functional, cell-based; conditions: time 9.0 day
[7] = system: Epithelial cell; test: Downregulation of LOR gene expression in human organotypic epithelial cells at 0.2 uM incubated for 9 days with replacement of fresh compounds every other day by qPCR analysis; type: functional, cell-based; conditions: time 9.0 day
[8] = system: Epithelial cell; test: Upregulation of RARG gene expression in human organotypic epithelial cells at 0.2 uM incubated for 9 days with replacement of fresh compounds every other day by qPCR analysis; type: functional, cell-based; conditions: time 9.0 day
[9] = system: Epithelial cell; test: Downregulation of ACER1 gene expression in human organotypic epithelial cells at 0.2 uM incubated for 9 days with replacement of fresh compounds every other day by qPCR analysis; type: functional, cell-based; conditions: time 9.0 day
[10] = system: RAW264.7; test: Antiinflammatory activity in LPS-induced mouse RAW264.7 cells assessed as reduction in CCL5 level at 10 uM after 6 hrs by RT-PCR analysis; type: functional, cell-based
[11] = system: Epithelial cell; test: Upregulation of RBP1 gene expression in human organotypic epithelial cells at 0.2 uM incubated for 9 days with replacement of fresh compounds every other day by qPCR analysis; type: functional, cell-based; conditions: time 9.0 day
[12] = system: RAW264.7; test: Antiinflammatory activity in LPS-induced mouse RAW264.7 cells assessed as reduction in Csf3 level at 10 uM after 6 hrs by RT-PCR analysis; type: functional, cell-based
[13] = system: Epithelial cell; test: Upregulation of CRABP2 gene expression in human organotypic epithelial cells at 0.2 uM incubated for 9 days with replacement of fresh compounds every other day by qPCR analysis; type: functional, cell-based; conditions: time 9.0 day
[14] = system: RAW264.7; test: Antiinflammatory activity in LPS-induced mouse RAW264.7 cells assessed as reduction in IL-6 level at 10 uM after 6 hrs by RT-PCR analysis; type: functional, cell-based
[15] = system: RAW264.7; test: Antiinflammatory activity in LPS-induced mouse RAW264.7 cells assessed as reduction in CCL22 level at 10 uM after 6 hrs by RT-PCR analysis; type: functional, cell-based
[16] = system: RAW264.7; test: Antiinflammatory activity in LPS-induced mouse RAW264.7 cells assessed as reduction in IL27 level at 10 uM after 6 hrs by RT-PCR analysis; type: functional, cell-based
[17] = system: Epithelial cell; test: Downregulation of MCM7 gene expression in human organotypic epithelial cells at 0.2 uM incubated for 9 days with replacement of fresh compounds every other day by qPCR analysis; type: functional, cell-based; conditions: time 9.0 day
[18] = system: Epithelial cell; test: Upregulation of RDH10 gene expression in human organotypic epithelial cells at 0.2 uM incubated for 9 days with replacement of fresh compounds every other day by qPCR analysis; type: functional, cell-based; conditions: time 9.0 day
[19] = system: RAW264.7; test: Antiinflammatory activity in LPS-induced mouse RAW264.7 cells assessed as reduction in Saa3 level at 10 uM after 6 hrs by RT-PCR analysis; type: functional, cell-based
[20] = system: RAW264.7; test: Antiinflammatory activity in LPS-induced mouse RAW264.7 cells assessed as reduction in IL-1beta level at 10 uM after 6 hrs by RT-PCR analysis; type: functional, cell-based
[21] = Induction of triglyceride level in Sprague-Dawley rat at 200 mg/kg in diet for 7 days relative to control (reference value: 0 %); type: functional; conditions: time 7 day
[22] = Induction of triglyceride level in Sprague-Dawley rat at 200 mg/kg in diet for 7 days (reference value: 89 +/- 10 mg/dl); type: functional; conditions: time 7 day
[23] = molecular target: T1, Retinoic acid receptor RXR-alpha (Homo sapiens) (UniProt P19793); conditions: filed as agonist
T1 sequence (whole entry): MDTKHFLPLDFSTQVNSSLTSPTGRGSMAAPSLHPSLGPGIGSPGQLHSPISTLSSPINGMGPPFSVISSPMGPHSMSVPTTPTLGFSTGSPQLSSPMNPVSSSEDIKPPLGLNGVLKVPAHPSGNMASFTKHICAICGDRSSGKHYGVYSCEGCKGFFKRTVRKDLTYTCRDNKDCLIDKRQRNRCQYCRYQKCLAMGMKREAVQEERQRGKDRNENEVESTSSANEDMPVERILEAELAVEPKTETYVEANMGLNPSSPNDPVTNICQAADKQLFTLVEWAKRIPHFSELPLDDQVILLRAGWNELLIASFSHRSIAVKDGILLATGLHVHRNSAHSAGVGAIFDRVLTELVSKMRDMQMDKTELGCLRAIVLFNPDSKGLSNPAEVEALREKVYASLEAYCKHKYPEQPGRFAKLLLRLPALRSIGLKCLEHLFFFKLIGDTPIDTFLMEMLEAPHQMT
Description: Binding affinity to human RXRalpha LBD (T225 to T462 residues) assessed as change in enthalpy by isothermal titration calorimetry

[24] = molecular target: T2, Retinoic acid receptor RXR-alpha (Homo sapiens, UniProt P19793); test: Binding affinity to human RXRalpha LBD (T225 to T462 residues) assessed as binding constant by isothermal titration calorimetry
T2 sequence (P19793 whole entry): T1 sequence (whole entry)

[25] = molecular target: T1, Retinoic acid receptor RXR-alpha (Homo sapiens); conditions: filed as agonist; remark: listed apart in the source
Description: Binding affinity to human RXRalpha LBD (T225 to T462 residues) assessed as gibbs free energy change by isothermal titration calorimetry

[26] = molecular target: T2, Retinoic acid receptor RXR-alpha; test: Agonist activity at human GAL4-fused RXRalpha LBD (T225 to T462 residues) expressed in HEK293 cells incubated for 24 hrs by Dual-Glo luciferase assay; type: cell-based
[27] = molecular target: T2, Retinoic acid receptor RXR-alpha; test: Binding affinity to human RXRalpha LBD (T225 to T462 residues) by fluorescence quenching assay
[28] = system: Mus musculus; test: Prevention of UVB-induced carcinogenesis in Ptch+/- / SHK-1 mouse assessed as reduction in tumor number at 24 mg/kg measured after twice a week of UVB irradiation for 34 weeks (reference value: 8.16 +/- 1.87); type: functional
[29] = system: Mus musculus; test: Prevention of UVB-induced carcinogenesis in Ptch+/- / SHK-1 mouse assessed as reduction in tumor number at 24 mg/kg measured after twice a week of UVB irradiation for 34 weeks (reference value: 100 %); type: functional; design: scale not given: the % may be the effect or the level left
[30] = molecular target: T1, Retinoic acid receptor RXR-alpha (Homo sapiens); conditions: filed as agonist; remark: listed apart in the source
Description: Binding affinity to human RXRalpha LBD (T225 to T462 residues) assessed as change in entropy by isothermal titration calorimetry

[31] = system: Mus musculus; test: Prevention of UVB-induced carcinogenesis in Ptch+/- / SHK-1 mouse assessed as reduction in tumor number at 25 mg/kg measured after twice a week of UVB irradiation for 34 weeks (reference value: 100 %); type: functional; design: scale not given: the % may be the effect or the level left
[32] = system: Mus musculus; test: Prevention of UVB-induced carcinogenesis in Ptch+/- / SHK-1 mouse assessed as reduction in tumor number at 25 mg/kg measured after twice a week of UVB irradiation for 34 weeks (reference value: 8.16 +/- 1.87); type: functional

Compound	Activity [10]	Activity [12]	Activity [14]	Activity [15]	Activity [16]	Activity [19]	Activity [20]	Activity [21] [%]	Activity [22] [mg/dL]	deltaH [23] [kcal/mol]	Kd [24] [nM]	deltaG [25] [kcal/mol]	EC50 [26] [nM]	Kd [27] [nM]	TdeltaS [30] [kcal/mol]	further results
C=C(c1ccc(C(=O)O)cc1)c1cc2c(cc1C)C(C)(C)CCC2(C)C [BEXAROTENE]																Activity [1]: 350%
CC(=C/C=C/C(C)=C/C(=O)O)/C=C1\CCCc2ccccc21 [UAB-30]																Activity [2]: 5.4
CC1=C(/C=C/C(C)=C\C=C\C(C)=C\C(=O)O)C(C)(C)CCC1 [ALITRETINOIN]																Activity [3]: 400%
CC(=C/C=C/C(C)=C/C(=O)O)/C=C1\CCCC(CCC(C)C)=C1CCC(C)C	Active	Active	Active	Active	Active	Active	Active	20	107							Activity [4]: Active; Activity [5]: Active; Activity [6]: Active; Activity [7]: Active; Activity [8]: Active; Activity [9]: Active; Activity [11]: Active; Activity [13]: Active; Activity [17]: Active; Activity [18]: Active
CCCC1=C(CCC(C)C)/C(=C/C(C)=C\C=C\C(C)=C\C(=O)O)CCC1	Active	Active	Active	Active	Active	Active	Active	80	160	-7.4	2000	-7.8	61	3.6	0.38	Activity [4]: Active; Activity [5]: Active; Activity [6]: Active; Activity [7]: Active; Activity [8]: Active; Activity [9]: Active; Activity [11]: Active; Activity [13]: Active; Activity [17]: Active; Activity [18]: Active; Activity [28]: 3; Activity [29]: 63%
CCC(C)C1=C(CCC(C)C)/C(=C/C(C)=C\C=C\C(C)=C\C(=O)O)CCC1 (mixture of isomers)								211	277	-5.1	3500	-7.5	23	4.1	2.38	
CCCCC1=C(CCC(C)C)/C(=C/C(C)=C\C=C\C(C)=C\C(=O)O)CCC1	Active	Active	Active	Active	Active	Active	Active	13	101	-6.8	3100	-7.5	210	4.7	0.76	Activity [31]: 82%; Activity [32]: 1.44
